Patent US5612329A (priority 1995, dated 1997)

What was measured:
[1] = tested on: L1210 murine leukemia; test: In vivo testing in mice bearing L1210 leukemia; set-up: species or system female CD2 F1 mice; settings: for LD20: footnote e
Text: Virus-free, adult female CD2 F1 mice were obtained from the Animal Genetics and Production Branch of the National Cancer Institute. To minimize exogenous infection, mice were housed in microisolator caging and handled in accordance with the NIH Guide for the care and use of laboratory animals (NIH No. 85-23, 1985). The mice were randomized to groups of 5 mice per group, except titration groups which consisted of 10 mice per group, and the untreated control group which consisted of 20 mice.
On day 0, the mice were inoculated intraperitoneally with 1.0×10^5 L1210 mouse leukemia cells/mouse for the treatment and control groups. The titration groups received 1.0×10^4 to 1.0×10^6 L1210 cells/mouse.
Dosing solutions were freshly prepared just prior to treatment by dissolving 1,12-diaziridinyl-4,9-diazadodecane in 25 mM sodium phosphate buffer (pH 7.4), giving concentrations of 0.18-0.6 mg/ml.
Beginning on day 1, dosing solutions were administered intravenously by tail vein at 0.01 ml/g of body weight. The doses of 1,12-diaziridinyl-4,9-diazadodecane were 6.0, 4.0, 2.7, and 1.8 mg/kg. The dosing schedule was: a single dose on day 1; 3 doses every four days beginning on day 1; 2 doses every seven days beginning on day 1; or 2 doses on days 1 and 2.
Percent increase in lifespan was calculated using the formula, (T-C/C)·100, where T is the median day of death for the various treatment groups, and C is the median day of death for the control group.
The net log cell kill is an estimate of the number of cells that are killed by the drug at each specific dose and schedule, and was calculated by the formula, ((T-C)-Duration of Treatment)·0.3/Tumor Doubling Time.

[2] = tested on: RPMI-8226 cells; test: In vitro cytotoxicity / cell growth inhibition, leukemia; assay type: cell-based; settings: Homo sapiens; RPMI-8226, leukemia, 48 hr; read-out: log10 G150 (converted)
Experimental: The anti-proliferative activities of the aziridinylpolyamines obtained in Synthesis Examples 1-4 were assessed by determining log10 G150 values against human cancer cell lines using the screening strategy described by Boyd et al, Drug Devel. Res. 34:91-109 (1995).
More specifically, the compounds were tested at a minimum of five concentrations at 10-fold dilutions using a 48 hr continuous exposure protocol. Each cell line shown in Table 1 below was inoculated onto microtiter plates. After a pre-incubation period of 24-48 hr at 37° C., the test compounds were added, and the culture was incubated for an additional 48 hr at 37° C. Cell viability or cell growth end-point determinations were performed by fixation of the cells, followed by staining with sulforhodamine B (Monks et al, J. Natl. Cancer Inst., 83:757-766 (1991)).

[3] = tested on: HL-60 (TB) cells; test: cells; assay type: cell-based; settings: Homo sapiens, leukemia, 48 hr, read-out: log10 G150 (converted)

C(CCNCCCN1CC1)CNCCCN1CC1 [Synthesis Example 1, 1,12-Diaziridinyl-4,9-diazadodecane]
Net log cell kill (NLCK) ([1]; 1.8 mg/kg i.v. on day 1): 4
Percent increase in life span (% ILS) ([1]; 1.8 mg/kg i.v. on day 1): 57%
Survival (median day of death) ([1]; 1.8 mg/kg i.v. on day 1): 11 days
Net log cell kill (NLCK) ([1]; 1.8 mg/kg i.v. on days 1, 2): 6
Percent increase in life span (% ILS) ([1]; 1.8 mg/kg i.v. on days 1, 2): 100%
Survival (median day of death) ([1]; 1.8 mg/kg i.v. on days 1, 2): 14 days
Net log cell kill (NLCK) ([1]; 1.8 mg/kg i.v. on days 1, 5, 9): 2
Percent increase in life span (% ILS) ([1]; 1.8 mg/kg i.v. on days 1, 5, 9): 143%
Survival (median day of death) ([1]; 1.8 mg/kg i.v. on days 1, 5, 9): 17 days
Net log cell kill (NLCK) ([1]; 1.8 mg/kg i.v. on days 1, 8): -1
Percent increase in life span (% ILS) ([1]; 1.8 mg/kg i.v. on days 1, 8): 86%
Survival (median day of death) ([1]; 1.8 mg/kg i.v. on days 1, 8): 13 days
Net log cell kill (NLCK) ([1]; 2.7 mg/kg i.v. on day 1): 3
Percent increase in life span (% ILS) ([1]; 2.7 mg/kg i.v. on day 1): 42%
Survival (median day of death) ([1]; 2.7 mg/kg i.v. on day 1): 10 days
Net log cell kill (NLCK) ([1]; 2.7 mg/kg i.v. on days 1, 2): 6
Percent increase in life span (% ILS) ([1]; 2.7 mg/kg i.v. on days 1, 2): 100%
Survival (median day of death) ([1]; 2.7 mg/kg i.v. on days 1, 2): 14 days
Net log cell kill (NLCK) ([1]; 2.7 mg/kg i.v. on days 1, 5, 9): 4
Percent increase in life span (% ILS) ([1]; 2.7 mg/kg i.v. on days 1, 5, 9): 171%
Survival (median day of death) ([1]; 2.7 mg/kg i.v. on days 1, 5, 9): 19 days
Net log cell kill (NLCK) ([1]; 2.7 mg/kg i.v. on days 1, 8): 2
Percent increase in life span (% ILS) ([1]; 2.7 mg/kg i.v. on days 1, 8): 129%
Survival (median day of death) ([1]; 2.7 mg/kg i.v. on days 1, 8): 16 days
Net log cell kill (NLCK) ([1]; 4.0 mg/kg i.v. on day 1): 4
Percent increase in life span (% ILS) ([1]; 4.0 mg/kg i.v. on day 1): 57%
Survival (median day of death) ([1]; 4.0 mg/kg i.v. on day 1): 11 days
Net log cell kill (NLCK) ([1]; 4.0 mg/kg i.v. on days 1, 2): -3
Percent increase in life span (% ILS) ([1]; 4.0 mg/kg i.v. on days 1, 2): -29%
Survival (median day of death) ([1]; 4.0 mg/kg i.v. on days 1, 2): 5 days
Net log cell kill (NLCK) ([1]; 4.0 mg/kg i.v. on days 1, 5, 9): -7
Percent increase in life span (% ILS) ([1]; 4.0 mg/kg i.v. on days 1, 5, 9): 14%
Survival (median day of death) ([1]; 4.0 mg/kg i.v. on days 1, 5, 9): 8 days
Net log cell kill (NLCK) ([1]; 4.0 mg/kg i.v. on days 1, 8): 4
Percent increase in life span (% ILS) ([1]; 4.0 mg/kg i.v. on days 1, 8): 157%
Survival (median day of death) ([1]; 4.0 mg/kg i.v. on days 1, 8): 18 days
Net log cell kill (NLCK) ([1]; 6.0 mg/kg i.v. on day 1): -1
Percent increase in life span (% ILS) ([1]; 6.0 mg/kg i.v. on day 1): -14%
Survival (median day of death) ([1]; 6.0 mg/kg i.v. on day 1): 6 days
LD20 ([1]; i.v. on day 1): 4.0 mg/kg
LD20 ([1]; i.v. on days 1, 2): 2.7 mg/kg
LD100 ([1]; i.v. on days 1, 2, footnote f): 4.0 mg/kg
LD20 ([1]; i.v. on days 1, 5, 9): 4.0 mg/kg
LD20 ([1]; i.v. on days 1, 8): 4.0 mg/kg
increase in the life span ([1]; i.v., doses of less than 2.7 mg/kg, days 1, 5, and 9): significant increase in the life span
GI50 [2]: 5130 nM
GI50 [3]: 35.5 nM
